26 compounds from patent US20140023611A1 (priority 2010, published 2014) can be followed below.

Some results are limits rather than exact numbers.

This test has as its target T1, rat NaP2b (SLC34A2) (Rattus norvegicus, UniProt Q9JJ09).
T1 construct: host or cells: HEK293
T1 sequence (Q9JJ09 1-695): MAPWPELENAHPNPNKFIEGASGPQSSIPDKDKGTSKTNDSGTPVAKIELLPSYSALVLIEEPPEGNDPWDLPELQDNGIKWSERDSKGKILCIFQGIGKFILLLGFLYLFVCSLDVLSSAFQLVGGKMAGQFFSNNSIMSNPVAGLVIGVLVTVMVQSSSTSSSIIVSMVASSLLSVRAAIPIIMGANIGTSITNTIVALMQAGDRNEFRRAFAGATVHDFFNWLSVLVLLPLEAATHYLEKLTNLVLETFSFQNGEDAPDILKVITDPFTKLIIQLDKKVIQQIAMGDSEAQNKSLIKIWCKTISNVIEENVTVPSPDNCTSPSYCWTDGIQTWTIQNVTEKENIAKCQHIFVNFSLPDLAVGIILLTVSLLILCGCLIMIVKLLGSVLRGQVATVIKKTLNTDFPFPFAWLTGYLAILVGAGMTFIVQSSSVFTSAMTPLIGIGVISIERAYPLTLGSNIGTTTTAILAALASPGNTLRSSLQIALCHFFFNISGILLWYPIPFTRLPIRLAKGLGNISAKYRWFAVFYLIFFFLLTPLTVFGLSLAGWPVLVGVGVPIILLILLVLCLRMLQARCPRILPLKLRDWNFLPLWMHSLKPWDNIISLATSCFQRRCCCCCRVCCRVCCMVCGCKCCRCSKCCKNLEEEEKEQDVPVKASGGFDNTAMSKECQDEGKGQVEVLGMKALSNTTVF
Description: Inhibition of NaP2b-mediated Pi (33P) uptake in transfected HEK293 cells, rat NaP2b. It is filed as cell-based. Particulars: 33P Pi uptake, 0.1 mM phosphate, value given as pIC50 range. The gist of the method: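 The cells transiently expressed NaP2b after Lipofectamine transfection. Each compound was run in duplicate over twelve concentrations, 0.1 nM–30 uM.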

What is called IC50 is the concentration that gives 50% inhibition. A high value points to a need for much substance.

For the compound `O=C(NCc1cccc(C(F)(F)F)c1)c1ccnc(-c2cc(N3CCCCC3)ccc2NC(=O)c2cccc(CSCCS(=O)(=O)O)c2)c1` [Example 8.13], the IC50 is 10 to 31.6 µM. `O=C(NCc1cccc(C(F)(F)F)c1)c1ccnc(-c2cc(N3CCCCC3)ccc2NC(=O)c2cccc(CSc3ncc(C(=O)O)c(O)n3)c2)c1` [Example 8.14] showed an IC50 of 1 to 7.94 µM. In the case of `O=C(O)c1ccc(SCc2cccc(C(=O)Nc3ccc(N4CCCCC4)cc3-c3cc(C(=O)NCc4cccc(C(F)(F)F)c4)ccn3)c2)nc1` [Example 8.15] it was 1 to 7.94 µM; in that of `Cc1nc(SCc2cccc(C(=O)Nc3ccc(N4CCCCC4)cc3-c3cc(C(=O)NCc4cccc(C(F)(F)F)c4)ccn3)c2)sc1CC(=O)O` [Example 8.16], 1 to 7.94 µM. The compound `O=C(O)Cc1ccc(SCc2cccc(C(=O)Nc3ccc(N4CCCCC4)cc3-c3cc(C(=O)NCc4cccc(C(F)(F)F)c4)ccn3)c2)cc1` [Example 8.17] had an IC50 of less than 1 µM. Next, `O=C(O)CCCc1cccc(SCc2cccc(C(=O)Nc3ccc(N4CCCCC4)cc3-c3cc(C(=O)NCc4cccc(C(F)(F)F)c4)ccn3)c2)c1` [Example 8.19]: 1 to 7.94 µM; `CC(C)(Cc1cccc(SCc2cccc(C(=O)Nc3ccc(N4CCCCC4)cc3-c3cc(C(=O)NCc4cccc(C(F)(F)F)c4)ccn3)c2)c1)C(=O)O` [Example 8.20]: 1 to 7.94 µM. Next, `O=C(O)CCOCCOCCOCCOCCOCCOCCOCCOCCSCc1cccc(C(=O)Nc2ccc(N3CCCCC3)cc2-c2cc(C(=O)NCc3cccc(C(F)(F)F)c3)ccn2)c1` [Example 8.22]: 1 to 7.94 µM; `O=C(O)c1ccc(SCc2cccc(C(=O)Nc3ccc(N4CCCCC4)cc3-c3cc(C(=O)NCc4cccc(C(F)(F)F)c4)ccn3)c2)cc1` [Example 8.23]: 1 to 7.94 µM. Compound `O=C(NCc1cccc(C(F)(F)F)c1)c1ccnc(-c2cc(N3CCCCC3)ccc2NC(=O)c2cccc(CN3CCC(CO)CC3)c2)c1` [Example 8.27] had an IC50 of 10 to 31.6 µM. In the case of `O=C(NCc1cccc(C(F)(F)F)c1)c1ccnc(-c2cc(N3CCCCC3)ccc2NC(=O)c2cccc(Cn3ccc4c(C(=O)O)cccc43)c2)c1` [Example 9.1, 1-(3-((4-(Piperidin-1-yl)-2-(4-((3-(trifluoromethyl)benzyl)carbamoyl)pyridin-2-yl)phenyl)carbamoyl)benzyl)-1H-indole-4-carboxylic acid] it was 1 to 7.94 µM; in that of `O=C(O)c1cccc(CSCc2cccc(C(=O)Nc3ccc(N4CCCCC4)cc3-c3cc(C(=O)NCc4cccc(C(F)(F)F)c4)ccn3)c2)c1` [Example 9.3, 3-(((3-((4-(Piperidin-1-yl)-2-(4-((3-(trifluoromethyl)benzyl)carbamoyl)pyridin-2-yl)phenyl)carbamoyl)benzyl)thio)methyl)benzoic acid], 1 to 7.94 µM; in that of `CN1CCC(N(C)C(=O)c2cccc(SCc3cccc(C(=O)Nc4ccc(N5CCCCC5)cc4-c4cc(C(=O)NCc5cccc(C(F)(F)F)c5)ccn4)c3)c2)CC1` [Example 10.2], 10 to 31.6 µM. In the case of `CN1CCN(C(=O)c2cccc(SCc3cccc(C(=O)Nc4ccc(N5CCCCC5)cc4-c4cc(C(=O)NCc5cccc(C(F)(F)F)c5)ccn4)c3)c2)CC1` [Example 10.3] it was 10 to 31.6 µM; in that of `CN1CCC(NC(=O)c2cccc(SCc3cccc(C(=O)Nc4ccc(N5CCCCC5)cc4-c4cc(C(=O)NCc5cccc(C(F)(F)F)c5)ccn4)c3)c2)CC1` [Example 10.4], 10 to 31.6 µM. For `COCCNC(=O)c1cccc(SCc2cccc(C(=O)Nc3ccc(N4CCCCC4)cc3-c3cc(C(=O)NCc4cccc(C(F)(F)F)c4)ccn3)c2)c1` [Example 10.5], the IC50 was 10 to 31.6 µM. Regarding `O=C(NCCN1CCOCC1)c1cccc(SCc2cccc(C(=O)Nc3ccc(N4CCCCC4)cc3-c3cc(C(=O)NCc4cccc(C(F)(F)F)c4)ccn3)c2)c1` [Example 10.6], the 50% inhibitory concentration (IC50) was 1 to 7.94 µM. In the case of `CN(CCN1CCOCC1)C(=O)c1cccc(SCc2cccc(C(=O)Nc3ccc(N4CCCCC4)cc3-c3cc(C(=O)NCc4cccc(C(F)(F)F)c4)ccn3)c2)c1` [Example 10.7] it was 1 to 7.94 µM; in that of `CCN(CC)CCN(C)C(=O)c1cccc(SCc2cccc(C(=O)Nc3ccc(N4CCCCC4)cc3-c3cc(C(=O)NCc4cccc(C(F)(F)F)c4)ccn3)c2)c1` [Example 10.8], 10 to 31.6 µM; in that of `CN(CCN1CCOCC1)C(=O)c1cccc(C(=O)Nc2ccc(N3CCCCC3)cc2-c2cc(C(=O)NCc3cccc(C(F)(F)F)c3)ccn2)n1` [Example 11.1, N2-Methyl-N2-(2-morpholinoethyl)-N6-(4-(piperidin-1-yl)-2-(4-((3-(trifluoromethyl)benzyl)carbamoyl)pyridin-2-yl)phenyl)pyridine-2,6-dicarboxamide], 1 to 7.94 µM.

Take `Cc1cc(C(=O)Nc2ccc(N3CCCCC3)cc2-c2cc(C(=O)NCc3cccc(C(F)(F)F)c3)ccn2)cc(C(=O)N(C)CCN2CCOCC2)c1` [Example 11.2, N1,5-Dimethyl-N1-(2-morpholinoethyl)-N3-(4-(piperidin-1-yl)-2-(4-((3-(trifluoromethyl)benzyl)carbamoyl)pyridin-2-yl)phenyl)isophthalamide]: the IC50 is 1 to 7.94 µM. Next, `COc1c(C(=O)Nc2ccc(N3CCCCC3)cc2-c2cc(C(=O)NCc3cccc(C(F)(F)F)c3)ccn2)cccc1C(=O)N(C)CCN1CCOCC1` [Example 11.3, 2-Methoxy-N1-methyl-N1-(2-morpholinoethyl)-N3-(4-(piperidin-1-yl)-2-(4-((3-(trifluoromethyl)benzyl)carbamoyl)pyridin-2-yl)phenyl)isophthalamide]: 10 to 31.6 µM. As for `COc1cc(C(=O)Nc2ccc(N3CCCCC3)cc2-c2cc(C(=O)NCc3cccc(C(F)(F)F)c3)ccn2)cc(C(=O)N(C)CCN2CCOCC2)c1` [Example 11.4, 5-Methoxy-N1-methyl-N1-(2-morpholinoethyl)-N3-(4-(piperidin-1-yl)-2-(4-((3-(trifluoromethyl)benzyl)carbamoyl)pyridin-2-yl)phenyl)isophthalamide], the IC50 is 10 to 31.6 µM. In the case of `CN(CCN1CCN(C(=O)OC(C)(C)C)CC1)Cc1cccc(C(=O)Nc2ccc(N3CCCCC3)cc2-c2cc(C(=O)NCc3cccc(C(F)(F)F)c3)ccn2)c1` [Example 38, Tert-butyl 4-(2-(methyl(3-((4-(piperidin-1-yl)-2-(4-((3-(trifluoromethyl)benzyl)-carbamoyl)pyridin-2-yl)phenyl)carbamoyl)benzyl)amino)ethyl)piperazine-1-carboxylate] it was 10 to 31.6 µM; in that of `CN(Cc1cccc(C(=O)Nc2ccc(N3CCCCC3)cc2-c2cc(C(=O)NCc3cccc(C(F)(F)F)c3)ccn2)c1)C(=O)CN1CCOCC1` [Example 42, 2-(2-(3-((N-Methyl-2-morpholinoacetamido)methyl)benzamido)-5-(piperidin-1-yl)phenyl)-N-(3-(trifluoromethyl)benzyl)isonicotinamide], 10 to 31.6 µM.

Take `CN(CCOCCOCCOCCC(=O)O)Cc1cccc(C(=O)Nc2ccc(N3CCCCC3)cc2-c2cc(C(=O)NCc3cccc(C(F)(F)F)c3)ccn2)c1` [Example 43, 2-Methyl-1-(3-((4-(piperidin-1-yl)-2-(4-((3-(trifluoromethyl)benzyl)carbamoyl)pyridin-2-yl)phenyl)carbamoyl)phenyl)-5,8,11-trioxa-2-azatetradecan-14-oic acid]: the IC50 was 10 to 31.6 µM.
